One assay concerns the target Grp94 (Canis lupus familiaris, UniProt P41148). The note with it: read-out: Grp94; FP competition, 6 nM Cy3B-GM, 10 nM protein, 4° C. for 24 h.
For the next assay, the target named is Hsp90α (Homo sapiens, UniProt P07900). As to the kind of experiment: biochemical. The conditions noted are these: FP competition, 6 nM Cy3B-GM, 10 nM protein, 4° C. for 24 h.

Each structure is given as a SMILES string.

Chain of Grp94 (P41148 with tags, fused parts or gaps DELINS287-327GGGG): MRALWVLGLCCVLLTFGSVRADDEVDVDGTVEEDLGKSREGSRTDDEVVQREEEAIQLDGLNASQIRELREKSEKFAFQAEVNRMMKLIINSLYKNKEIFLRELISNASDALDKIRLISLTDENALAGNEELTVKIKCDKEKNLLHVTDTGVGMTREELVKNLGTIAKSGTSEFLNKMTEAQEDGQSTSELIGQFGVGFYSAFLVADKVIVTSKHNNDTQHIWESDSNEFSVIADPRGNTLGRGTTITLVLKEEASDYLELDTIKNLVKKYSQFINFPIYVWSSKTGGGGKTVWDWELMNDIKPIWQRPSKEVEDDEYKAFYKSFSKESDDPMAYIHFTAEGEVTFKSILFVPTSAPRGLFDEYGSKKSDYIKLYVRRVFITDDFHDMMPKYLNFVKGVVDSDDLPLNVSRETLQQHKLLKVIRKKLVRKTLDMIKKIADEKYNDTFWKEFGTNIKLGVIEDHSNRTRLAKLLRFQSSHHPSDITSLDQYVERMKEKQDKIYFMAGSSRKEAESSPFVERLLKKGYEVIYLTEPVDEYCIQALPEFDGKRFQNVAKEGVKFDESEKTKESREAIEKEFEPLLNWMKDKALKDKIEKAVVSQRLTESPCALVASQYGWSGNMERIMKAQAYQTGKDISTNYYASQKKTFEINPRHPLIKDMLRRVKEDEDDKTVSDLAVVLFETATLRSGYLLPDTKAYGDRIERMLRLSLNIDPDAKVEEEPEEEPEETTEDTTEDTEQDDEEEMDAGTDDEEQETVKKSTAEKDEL

`CC(C)NCCCn1c(Sc2cc(Cl)cc(-c3cn[nH]c3)c2)nc2c(N)ncnc21` [HJP-VI-46, 8-((3-chloro-5-(1H-pyrazol-4-yl)phenyl)thio)-9-(3-(isopropylamino)propyl)-9H-purin-6-amine]: the IC50 on Grp94 is 1.9 µM; on Hsp90α it was 15.9 µM.

In the case of `Nc1ncnc2c1nc(Sc1ccc(Cl)cc1Cl)n2CCc1ccccc1F` [HJP-V-96, 8-((2,4-Dichlorophenyl)thio)-9-(2-fluorophenethyl)-9H-purin-6-amine], the results for the IC50 on Grp94 and on Hsp90α were 1.9 µM and over 50 µM, respectively.

Regarding `CC(C)NCCCn1c(Sc2cc(Cl)c(Cl)cc2Cl)nc2c(N)ncnc21` [HJP-V-103-N9, 9-(3-(Isopropylamino)propyl)-8-((2,4,5-trichlorophenyl)thio)-9H-purin-6-amine], the IC50 worked out at 0.35 µM on Grp94 and 5.8 µM at Hsp90α.

In the case of `C#CCCCn1c(Cc2ccc(Cl)cc2Cl)nc2c(N)ncnc21` [HJP-V-37, 8-(2,4-Dichlorobenzyl)-9-(pent-4-yn-1-yl)-9H-purin-6-amine], the IC50 on Grp94 was 0.7 µM; at Hsp90α it was over 10 µM.

Turning to `CC(C)C#Cc1cc(Cl)cc(Sc2nc3c(N)ncnc3n2CCCNC(C)C)c1` [HJP-VI-51, 8-((3-chloro-5-(3-methylbut-1-yn-1-yl)phenyl)thio)-9-(3-(isopropylamino)propyl)-9H-purin-6-amine], the results for the IC50 at Grp94 and at Hsp90α were 1.2 µM and over 50 µM, respectively.

For the compound `C[C@@H](O)CNCCn1c(Sc2ccc(Cl)cc2Cl)nc2c(N)ncnc21` [HJP-V-104, 1(R)-1-((2-(6-Amino-8-((2,4-dichlorophenyl)thio)-9H-purin-9-yl)ethyl)amino)propan-2-ol], the IC50 on Grp94 stood at 1.5 µM; on Hsp90α it was 55.8 µM.

On to `CC(C)NCCCn1c(Sc2cc(Cl)cc(C#CCO)c2)nc2c(N)ncnc21` [HJP-VI-58, 3-(3-((6-amino-9-(3-(isopropylamino)propyl)-9H-purin-8-yl)thio)-5-chlorophenyl)prop-2-yn-1-ol], for which the IC50 is 5.8 µM at Grp94 and over 50 µM on Hsp90α.

On to `Nc1ncnc2c1nc(Sc1ccc(Cl)cc1Cl)n2CCc1ccncc1` [HJP-V-118, 8-((2,4-Dichlorophenyl)thio)-9-(2-(pyridin-4-yl)ethyl)-9H-purin-6-amine], for which the values for the IC50 at Grp94 and on Hsp90α were 1.03 µM and over 50 µM, respectively.

Consider `C#CCCCn1cnc(N)c2nc(Sc3cccc4ccccc34)nc1-2` [PDP-I-16-N3], for which the IC50 at Grp94 was over 5 µM; on Hsp90α, over 100 µM.

For `C#CCCCn1c(Cc2cc(Cl)ccc2Cl)nc2c(N)ncnc21` [HJP-V-54, 8-(2,5-Dichlorobenzyl)-9-(pent-4-yn-1-yl)-9H-purin-6-amine], the IC50 on Grp94 is 0.75 µM; at Hsp90α, over 10 µM.

For `C#CCCCn1c(Oc2ccc(Cl)cc2Cl)nc2c(N)ncnc21` [HJP-V-45, 8-(2,4-Dichlorophenoxy)-9-(pent-4-yn-1-yl)-9H-purin-6-amine], the IC50 on Grp94 was 0.5 µM; on Hsp90α, over 10 µM.

On to `CN1CCN(CCn2c(Sc3cc(Cl)cc(Cl)c3)nc3c(N)ncnc32)CC1` [SO-III-39A, 8-((3,5-dichlorophenyl)thio)-9-(2-(4-methylpiperazin-1-yl)ethyl)-9H-purin-6-amine], for which the values for the IC50 at Grp94 and on Hsp90α were 0.373 µM and 52.2 µM, respectively.

Take `COc1cccc(-c2cc(Cl)cc(Sc3nc4c(N)ncnc4n3CCCNC(C)C)c2)c1` [HJP-VI-7, 8-((5-chloro-3′-methoxy-[1,1′-biphenyl]-3-yl)thio)-9-(3-(isopropylamino)propyl)-9H-purin-6-amine]: the results for the IC50 on Grp94 and at Hsp90α were 0.26 µM and 47.5 µM, respectively.

For the compound `C#CCCCn1c(Sc2cn(Cc3ccc(OC)cc3)c3ncc(Br)cc23)nc2c(N)ncnc21` [PDP-I-58-N9], the IC50 on Grp94 is over 10 µM; on Hsp90α, over 50 µM.

Take `C#CCCCn1c(Sc2ccc(Cl)c3ccccc23)nc2c(N)ncnc21` [PDP-I-77-N9]: the values for the IC50 at Grp94 and at Hsp90α were over 2 µM and over 50 µM, respectively.

For `C#CCCCn1cnc(N)c2nc(Sc3ccc(Br)cc3CC)nc1-2` [PDP-I-54-N3], the results for the IC50 on Grp94 and at Hsp90α were over 10 µM and over 50 µM, respectively.

Regarding `CC(C)NCCCn1c(Sc2cc(Cl)cc(/C=C/C(C)(C)C)c2)nc2c(N)ncnc21` [HJP-VI-72, (E)-8-((3-chloro-5-(3,3-dimethylbut-1-en-1-yl)phenyl)thio)-9-(3-(isopropylamino)propyl)-9H-purin-6-amine], the IC50 at Grp94 is 0.102 µM; on Hsp90α it was 14.2 µM.

Regarding `CC(C)NCCCn1c(Sc2ccc(Cl)cc2-c2ccc[nH]2)nc2c(N)ncnc21` [HJP-VI-42, 8-((4-chloro-2-(1H-pyrrol-2-yl)phenyl)thio)-9-(3-(isopropylamino)propyl)-9H-purin-6-amine], the values for the IC50 on Grp94 and on Hsp90α were 1.1 µM and 66.9 µM, respectively.

For `Cc1ccc(-c2cc(Cl)cc(Sc3nc4c(N)ncnc4n3CCCNC(C)C)c2)o1` [HJP-VI-38, 8-((3-chloro-5-(5-methylfuran-2-yl)phenyl)thio)-9-(3-(isopropylamino)propyl)-9H-purin-6-amine], the results for the IC50 at Grp94 and at Hsp90α were 0.75 µM and 25.9 µM, respectively.

As to `Nc1ncnc2c1nc(Sc1cc(Cl)cc(Cl)c1)n2CCCN1CC(O)C1` [HJP-V-134, 1-(3-(6-amino-8-((3,5-dichlorophenyl)thio)-9H-purin-9-yl)propyl)azetidin-3-ol], the IC50 on Grp94 was 0.38 µM; on Hsp90α it was over 10 µM.

As for `CC(C)NCCCn1c(Sc2cccc3ccccc23)nc2c(N)nccc21` [SO-IV-03, 1-(3-(isopropylamino)propyl)-2-(naphthalen-1-ylthio)-1H-imidazo[4,5-c]pyridin-4-amine], the IC50 at Grp94 is over 5 µM; at Hsp90α it was over 50 µM.

`CC(C)NCCCn1c(Sc2cc(Cl)cc(C#CC(C)(C)C)c2)nc2c(N)ncnc21` [HJP-VI-53, 8-((3-chloro-5-(3,3-dimethylbut-1-yn-1-yl)phenyl)thio)-9-(3-(isopropylamino)propyl)-9H-purin-6-amine]: the IC50 was 0.63 µM at Grp94 and over 50 µM on Hsp90α.

Take `CC(C)NCCCn1c(Sc2cc(Cl)cc(C#CC3CC3)c2)nc2c(N)ncnc21` [HJP-VI-52, 8-((3-chloro-5-(cyclopropylethynyl)phenyl)thio)-9-(3-(isopropylamino)propyl)-9H-purin-6-amine]: the values for the IC50 at Grp94 and on Hsp90α were 0.18 µM and over 50 µM, respectively.

As for `C#CCCCn1c([S+]([O-])c2ccc(Cl)cc2Cl)nc2c(N)ncnc21` (centres unmarked) [HJP-V-62M, 8-((2,4-Dichlorophenyl)sulfinyl)-9-(pent-4-yn-1-yl)-9H-purin-6-amine], the IC50 on Grp94 was 5.4 µM; at Hsp90α, 24.1 µM.

On to `CC(O)C#Cc1cc(Cl)cc(Sc2nc3c(N)ncnc3n2CCCNC(C)C)c1` (centres unmarked) [HJP-VI-59, 4-(3-((6-amino-9-(3-(isopropylamino)propyl)-9H-purin-8-yl)thio)-5-chlorophenyl)but-3-yn-2-ol], for which the IC50 at Grp94 was 7.4 µM; at Hsp90α it was over 50 µM.

For `C#CCCCn1cnc(N)c2nc(Sc3ccc(Cl)c(Cl)c3)nc1-2` [PDP-I-25-N3], the IC50 on Grp94 was 11.1 µM; on Hsp90α it was over 50 µM.

As to `C#CCCCn1c(Cc2cc(Cl)cc(Cl)c2)nc2c(N)ncnc21` [HJP-V-39, 8-(3,5-Dichlorobenzyl)-9-(pent-4-yn-1-yl)-9H-purin-6-amine], the IC50 is 0.5 µM at Grp94 and over 10 µM on Hsp90α.

For `C#CCCCn1cnc(N)c2nc(Sc3ccc(-n4cccc4)cc3)nc1-2` [PDP-I-51-N3], the IC50 was over 5 µM on Grp94 and over 50 µM at Hsp90α.

Regarding `Nc1ncnc2c1nc(Sc1ccc(Cl)cc1Cl)n2CCc1ccccc1C(F)(F)F` [HJP-V-98, 8-((2,4-Dichlorophenyl)thio)-9-(2-(trifluoromethyl)phenethyl)-9H-purin-6-amine], the figures for the IC50 on Grp94 and on Hsp90α were 0.71 µM and over 50 µM, respectively.

On to `C[C@H](O)CNCCn1c(Sc2ccc(Cl)cc2Cl)nc2c(N)ncnc21` [HJP-V-105, 1(S)-1-((2-(6-Amino-8-((2,4-dichlorophenyl)thio)-9H-purin-9-yl)ethyl)amino)propan-2-ol], for which the IC50 was 0.35 µM on Grp94 and over 50 µM at Hsp90α.

With `CC(C)NCCCn1c(Sc2cc(Cl)cc(/C=C/C3CC3)c2)nc2c(N)ncnc21` [HJP-VI-64, (E)-8-((3-chloro-5-(2-cyclopropylvinyl)phenyl)thio)-9-(3-(isopropylamino)propyl)-9H-purin-6-amine], the IC50 is 0.24 µM at Grp94 and over 50 µM on Hsp90α.

As for `Nc1ncnc2c1nc(Sc1ccc(Cl)cc1Cl)n2CCc1ccccc1Cl` [HJP-V-97, 9-(2-Chlorophenethyl)-8-((2,4-dichlorophenyl)thio)-9H-purin-6-amine], the IC50 at Grp94 was found to be 2.2 µM; at Hsp90α, 186 µM.

Regarding `C#CCCCn1c(Cc2c(Cl)cccc2Cl)nc2c(N)ncnc21` [HJP-V-38, 8-(2,6-Dichlorobenzyl)-9-(pent-4-yn-1-yl)-9H-purin-6-amine], the IC50 on Grp94 turned out to be 13.8 µM; at Hsp90α, 14.4 µM.

For `CC(O)CNCCCn1c(Sc2cc(Cl)cc(Cl)c2)nc2c(N)ncnc21` (centres unmarked) [HJP-V-130, 1-((3-(6-amino-8-((3,5-dichlorophenyl)thio)-9H-purin-9-yl)propyl)amino)propan-2-ol], the IC50 on Grp94 turned out to be 0.37 µM; at Hsp90α, 51.7 µM.

As to `CCCC(C)n1c(Sc2ccc(Cl)cc2Cl)nc2c(N)ncnc21` (centres unmarked) [HJP-V-114, 8-((2,4-Dichlorophenyl)thio)-9-(pentan-2-yl)-9H-purin-6-amine], the IC50 is 2.48 µM on Grp94 and over 50 µM at Hsp90α.

Turning to `C#CCN(CCO)CCn1c(Sc2ccc(Cl)cc2Cl)nc2c(N)ncnc21` [HJP-V-110, 2-((2-(6-Amino-8-((2,4-dichlorophenyl)thio)-9H-purin-9-yl)ethyl)(prop-2-yn-1-yl)amino)ethanol], the IC50 on Grp94 was 0.6 µM; at Hsp90α, over 50 µM.

On to `C#CCCCn1c(Sc2ccc(C#N)c(Br)c2)nc2c(N)ncnc21` [HJP-III-32, 4-((6-Amino-9-(pent-4-yn-1-yl)-9H-purin-8-yl)thio)-2-bromobenzonitrile], for which the values for the IC50 at Grp94 and on Hsp90α were 4.28 µM and 14.3 µM, respectively.

The values are drawn from patent publication US12600725B2 (Memorial Sloan-Kettering Cancer Center, priority 2013, dated 2026).
